{"source": "patent US20120101157A1", "about": "“4,5-Diamino-3-Halo-2-Hydroxybenzoic Acid Derivatives and Preparations Thereof” (NATIONAL DEFENSE MEDICAL CENTER, priority 2010, published 2012)", "key": {"in vitro": {"assay": "in vitro", "conditions": "dog"}, "H1N1 virus": {"tested_on": "H1N1 virus", "assay": "microbe, parasite or virus in culture", "format": "cell-based", "conditions": "for anti-H1N1 / anti-influenza activity (in words) / SI (selective index=CC50/MIC): H1N1 in MDCK cells; for MIC: Influenza A virus, read-out: MIC (minimum inhibitory concentration, cell survival rate >75%)"}, "H5N1": {"tested_on": "H5N1", "conditions": "read-out: EC50 (50% effective concentration); H5N1, according to previous studies; cited from earlier work"}, "[1]": {"conditions": "H1N1 at 0.01 MOI in MDCK cells, 48 h, MTT"}}, "note": "“Also recorded” adds a separate entry of the source. Read-outs that look alike come from different tables or passages of the source.", "data": [{"smiles": "COC(=O)c1cc(N)c(NC(C)=O)cc1O", "note": "[compound 6b]", "values": [{"measurement": "melting point", "value": "204 to 206", "unit": "°C"}, {"measurement": "CC50", "setting": "in vitro", "value": "> 100", "unit": "µg/mL"}, {"measurement": "anti-H1N1 / anti-influenza activity (in words)", "setting": "H1N1 virus", "value": "better anti-H1N1 activity; also recorded: effectively inhibit influenza viral activity; also recorded: preferred anti-influenza activity"}, {"measurement": "MIC", "setting": "H1N1 virus; [1]", "value": 1.56, "unit": "µg/mL"}]}, {"smiles": "CC(=O)Nc1cc(O)c(C(=O)O)cc1NC(=N)N", "note": "[compound 7a, 4-(acetamido)-5-guanidino-2-hydroxybenzoic acid]", "values": [{"measurement": "melting point", "value": "334 to 357", "unit": "°C"}, {"measurement": "CC50", "setting": "in vitro", "value": "> 100", "unit": "µg/mL"}, {"measurement": "anti-H1N1 / anti-influenza activity (in words)", "setting": "H1N1 virus", "value": "better anti-H1N1 activity; also recorded: effectively inhibit influenza viral activity"}, {"measurement": "MIC", "setting": "H1N1 virus; [1]", "value": 25, "unit": "µg/mL"}]}, {"smiles": "Nc1ccc(C(=O)O)c(O)c1", "note": "[PAS, p-aminosalicylic acid, reference compound]", "values": [{"measurement": "CC50", "setting": "in vitro", "value": "> 100", "unit": "µg/mL"}, {"measurement": "MIC", "setting": "H1N1 virus; H1N1, 48 h", "value": "> 100", "unit": "µg/mL"}]}, {"smiles": "CCCC(=O)Nc1cc(O)c(C(=O)OCC)cc1N", "note": "[compound 6e]", "values": [{"measurement": "melting point", "value": "135 to 137", "unit": "°C"}, {"measurement": "CC50", "setting": "in vitro", "value": "> 100", "unit": "µg/mL"}, {"measurement": "SI (selective index=CC50/MIC)", "setting": "H1N1 virus", "value": ">64"}, {"measurement": "anti-H1N1 / anti-influenza activity (in words)", "setting": "H1N1 virus", "value": "better anti-H1N1 activity; also recorded: effectively inhibit influenza viral activity; also recorded: preferred anti-influenza activity"}, {"measurement": "MIC", "setting": "H1N1 virus; [1]", "value": 1.56, "unit": "µg/mL"}]}, {"smiles": "CC(=O)Nc1c(N)cc(C(=O)O)c(O)c1Br", "note": "[compound 8, 4-(acetamido)-5-amino-3-bromo-2-hydroxybenzoic acid]", "values": [{"measurement": "melting point", "value": "210 to 211", "unit": "°C"}, {"measurement": "CC50", "setting": "in vitro", "value": "> 100", "unit": "µg/mL"}, {"measurement": "anti-H1N1 / anti-influenza activity (in words)", "setting": "H1N1 virus", "value": "better anti-H1N1 activity; also recorded: effectively inhibit influenza viral activity; also recorded: preferred anti-influenza activity"}, {"measurement": "MIC", "setting": "H1N1 virus; [1]", "value": 1.56, "unit": "µg/mL"}]}, {"smiles": "NC(=O)c1ncn([C@@H]2O[C@H](CO)[C@@H](O)[C@H]2O)n1", "note": "[Ribavirin, reference compound]", "values": [{"measurement": "EC50", "setting": "H5N1", "value": "6 to 22", "unit": "µM"}, {"measurement": "MIC", "setting": "H1N1 virus; H1N1, 48 h", "value": 1.56, "unit": "µg/mL"}]}, {"smiles": "COC(=O)c1cc(NC(=N)N)c(NC(C)=O)cc1O", "note": "[compound 7b, methyl 4-(acetamido)-5-guanidino-2-hydroxybenzoate]", "values": [{"measurement": "melting point", "value": "233 to 234", "unit": "°C"}, {"measurement": "CC50", "setting": "in vitro", "value": "> 100", "unit": "µg/mL"}, {"measurement": "anti-H1N1 / anti-influenza activity (in words)", "setting": "H1N1 virus", "value": "better anti-H1N1 activity; also recorded: effectively inhibit influenza viral activity"}, {"measurement": "MIC", "setting": "H1N1 virus; [1]", "value": 25, "unit": "µg/mL"}]}, {"smiles": "CCCC(=O)Nc1cc(O)c(C(=O)OCC)cc1NC(=N)N", "note": "[compound 7e, ethyl 4-(butyramido)-5-guanidino-2-hydroxybenzoate]", "values": [{"measurement": "CC50", "setting": "in vitro", "value": "> 100", "unit": "µg/mL"}, {"measurement": "anti-H1N1 / anti-influenza activity (in words)", "setting": "H1N1 virus", "value": "no inhibiting activity"}, {"measurement": "MIC", "setting": "H1N1 virus; [1]", "value": "> 100", "unit": "µg/mL"}]}, {"smiles": "COC(=O)c1cc(N)c(NC(C)=O)c(Br)c1O", "note": "[compound 6f, methyl 4-(acetamido)-5-amino-3-bromo-2-hydroxybenzoate]", "values": [{"measurement": "melting point", "value": "217 to 219", "unit": "°C"}, {"measurement": "CC50", "setting": "in vitro", "value": "> 100", "unit": "µg/mL"}, {"measurement": "SI (selective index=CC50/MIC)", "setting": "H1N1 virus", "value": ">128"}, {"measurement": "anti-H1N1 / anti-influenza activity (in words)", "setting": "H1N1 virus", "value": "better anti-H1N1 activity; also recorded: effectively inhibit influenza viral activity; also recorded: preferred anti-influenza activity"}, {"measurement": "MIC", "setting": "H1N1 virus; [1]", "value": 0.78, "unit": "µg/mL"}]}, {"smiles": "COC(=O)c1cc(NC(=N)N)c(NC(C)=O)c(Br)c1O", "note": "[compound 7f, methyl 4-(acetamido)-3-bromo-5-guanidino-2-hydroxybenzoate]", "values": [{"measurement": "melting point", "value": "238 to 240", "unit": "°C"}, {"measurement": "CC50", "setting": "in vitro", "value": "> 100", "unit": "µg/mL"}, {"measurement": "anti-H1N1 / anti-influenza activity (in words)", "setting": "H1N1 virus", "value": "no inhibiting activity"}, {"measurement": "MIC", "setting": "H1N1 virus; [1]", "value": "> 100", "unit": "µg/mL"}]}, {"smiles": "CC(=O)Nc1cc(O)c(C(=O)O)cc1N", "note": "[compound 6a]", "values": [{"measurement": "melting point", "value": "295 to 297", "unit": "°C"}, {"measurement": "CC50", "setting": "in vitro", "value": "> 100", "unit": "µg/mL"}, {"measurement": "anti-H1N1 / anti-influenza activity (in words)", "setting": "H1N1 virus", "value": "better anti-H1N1 activity; also recorded: effectively inhibit influenza viral activity"}, {"measurement": "MIC", "setting": "H1N1 virus; [1]", "value": 50, "unit": "µg/mL"}]}]}
